# Test results published in a polymer gas permeability compilation.
SMILES,CH4 permeability,CO2 permeability,H2 permeability,N2 permeability,O2 permeability
*c1c(C)c(C)c(N2C(=O)c3ccc(Oc4cc(C(C)(C)C)cc(C)c4Oc4ccc5c(c4)C(=O)N(*)C5=O)cc3C2=O)c(C)c1C (repeat unit),2.2 Barrer,67 Barrer,110 Barrer,2.5 Barrer,13 Barrer
*c1c(C)c(C)c(N2C(=O)c3ccc(C(=O)c4ccc5c(c4)C(=O)N(*)C5=O)cc3C2=O)c(C)c1C (repeat unit),–,–,108 Barrer,2.63 Barrer,11.8 Barrer
*c1ccc(Oc2ccc(C(c3ccc(Oc4ccc(N5C(=O)c6ccc(C(c7ccc8c(c7)C(=O)N(*)C8=O)(C(F)(F)F)C(F)(F)F)cc6C5=O)cc4C(F)(F)F)cc3)(C(F)(F)F)C(F)(F)F)cc2)c(C(F)(F)F)c1 (repeat unit),0.703 Barrer,22.8 Barrer,55.4 Barrer,1.3 Barrer,6.5 Barrer
*c1ccc(-c2cc(C)c(-c3ccc(*)cc3C)cc2C)c(C)c1 (repeat unit),0.88 Barrer,32 Barrer,72 Barrer,1.4 Barrer,7.2 Barrer
*c1ccc(Oc2ccc(C3(c4ccc(Oc5ccc(N6C(=O)c7ccc(C(c8ccc9c(c8)C(=O)N(*)C9=O)(C(F)(F)F)C(F)(F)F)cc7C6=O)cc5)cc4)OC(=O)c4ccccc43)cc2)cc1 (repeat unit),0.455 Barrer,16.5 Barrer,–,0.965 Barrer,4.83 Barrer
*c1cccc(C(c2cccc(-c3nnc(*)n3-c3ccccc3)c2)(C(F)(F)F)C(F)(F)F)c1 (repeat unit),4.66 Barrer,132 Barrer,–,5.93 Barrer,26.1 Barrer
*Oc1ccc(C(C)(C)c2ccc(Oc3ccc(S(=O)(=O)c4ccc(*)cc4)cc3)cc2)cc1 (repeat unit),0.25 Barrer,5.6 Barrer,14 Barrer,0.25 Barrer,1.4 Barrer
*C(=C(*)c1ccc2c(c1)C(C)(C)c1ccccc1-2)c1ccc(F)cc1 (repeat unit),11000 Barrer,21000 Barrer,11000 Barrer,4700 Barrer,6200 Barrer
*c1ccc(Cc2ccc(N3C(=O)c4cc(Oc5ccccc5)c(-c5cc6c(cc5Oc5ccccc5)C(=O)N(*)C6=O)cc4C3=O)cc2)cc1 (repeat unit),0.85 Barrer,29 Barrer,–,0.73 Barrer,3.36 Barrer
*OCC1OC(COCC)C(*)C(OCC)C1OCC (repeat unit),6.1 Barrer,67.7 Barrer,54.4 Barrer,3.18 Barrer,11.9 Barrer
*Oc1ccc(C(C)(C)c2ccc(OC(=O)c3cccc(C(*)=O)c3)c(C)c2)cc1C (repeat unit),0.0459 Barrer,1.24 Barrer,7.79 Barrer,0.0628 Barrer,0.4 Barrer
*OCCCCCC(*)=O (repeat unit),1.57 Barrer,16.8 Barrer,5.06 Barrer,0.59 Barrer,1.32 Barrer
*/C(C)=C(/*)[Si](C)(C)CC (repeat unit),1200 Barrer,4600 Barrer,1930 Barrer,490 Barrer,970 Barrer
*c1cccc(-c2nnc(*)n2-c2ccccc2)c1 (repeat unit),0.0491 Barrer,2.7 Barrer,–,0.09 Barrer,0.52 Barrer
*C(C)=C(*)CCCCCCC (repeat unit),83.5 Barrer,290 Barrer,145 Barrer,29 Barrer,72.5 Barrer
*C(C)=C(*)c1ccccc1 (repeat unit),5.2 Barrer,174 Barrer,199 Barrer,12.2 Barrer,36.8 Barrer
*CC=C(C*)[Si](C)(OC(C)C)OC(C)C (repeat unit),63.2 Barrer,345 Barrer,–,25.4 Barrer,69.2 Barrer
